Experimental data from patent publication US20240343761A1, “APELINERGIC MACROCYCLES AND USES THEREOF” (priority 2021, published 2024).
Like-named read-outs stand apart in the source and are kept apart here. Numbered stars: 1 amine (or outer) side, 2 acyl side, 3 side chain; on linkers, the order of the positions; unused ones are H or OH. Bridge positions count the residues as written; N and C are the ends. Square brackets hold non-standard residues; d marks the D form. Ends that are not written are not given here. * marks the point of attachment. Tyr(OBn) = O-benzyl-tyrosine, O=C([C@H](Cc1ccc(OCc2ccccc2)cc1)N[*:1])[*:2]; pent‑4‑enoyl = des-amino allylglycine (Ø = desamino analog), C=CCCC(=O)*; Rx = Nα-allyl-arginine, C=CCN([C@@H](CCCNC(=N)N)C(=O)[*:2])[*:1]; dcypTyr(OBn) = not defined here; pGlu = O=C1CC[C@@H](C(=O)O)N1; Nle = CCCC[C@H](N)C(=O)O; AIH = not defined here

Columns and labels:
[1] = tested on: anesthetized male Sprague-Dawley rats; experiment: In vivo blood pressure measurement; set-up: species or system rat; details: i.v. bolus, doses 19.6 and 65 nmol/kg
Procedure: The animal experimental protocols were approved by the Animal Care Committee of Université de Sherbrooke and complied with policies and directives of the Canadian Council on Animal Care.
Male Sprague-Dawley rats (8-10 weeks of age) were anesthetized with ketamine/xylazine injection (87/13 mg/kg i.m.) and placed in supine position on a thermostatic pad. Their right carotid artery was catheterized with PE 50 (filled with heparinized saline), connected to a Micro-Med transducer (model TDX-300, Calabasas, USA) and Micro-Med blood pressure analyzer (model BPA-100c). […] This i.v. catheter was flushed with saline (0.2 mL) immediately after each injection.

hAPJ receptor [2] = target: T1, hAPJ receptor (Homo sapiens, UniProt P35414); experiment: BRET-based β-arrestin2 recruitment assay in HEK293 cells; assay type: cell-based; details: for Emax: HEK293
T1 construct: expressed in transfected cells; host or cells: HEK293, transient transfection with PEI
T1 sequence (P35414 1-380): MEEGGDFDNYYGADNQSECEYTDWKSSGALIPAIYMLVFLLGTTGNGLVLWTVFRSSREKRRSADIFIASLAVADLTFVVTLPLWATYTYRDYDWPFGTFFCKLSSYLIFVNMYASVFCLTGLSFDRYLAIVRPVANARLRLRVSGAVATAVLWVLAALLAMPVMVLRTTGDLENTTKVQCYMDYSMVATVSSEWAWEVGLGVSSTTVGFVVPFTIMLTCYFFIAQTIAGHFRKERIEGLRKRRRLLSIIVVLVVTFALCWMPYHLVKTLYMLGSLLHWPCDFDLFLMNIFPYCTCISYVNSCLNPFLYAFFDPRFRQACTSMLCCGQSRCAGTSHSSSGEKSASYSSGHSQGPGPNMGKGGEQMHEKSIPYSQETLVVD
In short: (§1)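 HEK293 cells in HBSS stimulated with analogs from 10^−5 to 10^−11 M, 5 min at 37 °C (Gαi1) or 30 min at room temperature (β-arrestin2).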

hAPJ receptor [3] = target: T1, hAPJ receptor; experiment: BRET-based Gαi1 activation assay in HEK293 cells; assay type: cell-based; details: for Emax: HEK293, Table V, read-out: Gαi1 Emax
In short: as §1

[4] = Rat plasma stability (half-life in vitro); assay type: in vitro ADME; details: rat plasma; for half-life at […]: male, Sprague-Dawley, rat, plasma
Procedure: Plasma was obtained from male Sprague-Dawley rats by collecting blood in heparin tube and centrifugating at 13,000 rpm to remove blood cells. The isolated plasma was stored at −80° C. and thawed right before the test. In 96-well plate, 6 μL of peptide solution at 1 mM was incubated with 27 μL of plasma at 37° C. in an oven equipped with orbital shaker. Tightly fitted caps were used to seal the wells to avoid water evaporation during incubation. […] A 96-well UPLC plate was put at the bottom to collect the samples. Both plates were centrifuged at 500 g for 10 min at 4° C. to accelerate the filtration. […] The quantity of remaining peptide was plotted into an exponential one-phase decay curve using GraphPad Prism 8 which allowed to calculate peptide half-life. The results were presented as mean±SEM of at least 3 independent experiments, each done in simplicate.
The percentage of remaining analogue was calculated by doing the ratio between AU of compound and AUC of internal standard. Half-lives were extrapolated from curves.

Sprague-Dawley rats = experiment: Echocardiography (cardiac performance) after s.c. injection; details: for effect on fractional shortening (FS) and cardiac output (CO): s.c. 0.2 μmol/kg, three hours after injection
in vivo = details: for AUC: male Sprague-Dawley rats
Procedure: Male Sprague-Dawley rats of 8-10 weeks were used in this study. […] Animals were placed in a containment chamber prior to i.v. injection to facilitate blood sampling. […] Those samples were immediately stored on crushed ice before being centrifuged at 13000 rpm for 5 min at 4° C. to isolate plasma (upper layer). The resultant plasma was transferred to polypropylene tubes, and immediately frozen at −80° C.
A combination of a protein precipitation and a solid phase extraction step were used to extract the peptides. Plasma sample was defrosted on ice. After vortex agitation (60 s), 100 μL sample was withdraw and 300 μL cold acetonitrile was added to precipitate the plasma proteins. The sample was then vortex (60 s) and centrifuged at 4500 rpm at 4° C. during 10 min. The supernatant was then isolated and directly pass through an HLB prime for additional clean up. The filtrate was diluted 10 times in 0.1% formic acid/water and filtered through a 0.22 μm syringe filter before LC/MS/MS analysis.
Samples were analyzed on a Sciex Qtrap 6500+ equipped with a microflow liquid chromatography (Eksigient M3 microflow) and a UPLC HSS-T3 column (1 mm×100 mm, 1.8 μm, equipped with a 0.2 μm fritted pre-filter). The solvent flow rate was set to 50 μL/min, the column temperature was kept at 40° C. and the injection volume was 3 μL. The mobile phase was 0.1% formic acid/water (A) and 0.1% formic acid/acetonitrile (B). The elution gradient starts with 2% of eluent B, increasing to 95% in 8 min, maintaining at 95% for 2 min and then back to initial conditions in 2 min for a total run time of 13 min. […] Analysis used two daughter traces (transitions), among them, the most abundant was for quantification and the second most abundant for confirmation.

[5] = target: T2, YFP-tagged human APJ receptor (human, UniProt P35414 1-380); experiment: competitive radioligand binding, HEK293-hAPJ membranes
T2 construct: whole, on cells; also called hAPJ; APJ WT; not shown: YFP tag
T2 sequence (looked up): T1 sequence (P35414 1-380)

[6] = target: T3, human APJ (transfected HEK293 cells, Gαi1 BRET assay) (human, UniProt P35414 1-380); experiment: cell-based or functional assay
T3 sequence (looked up): T1 sequence (P35414 1-380)

[7] = target: T2, YFP-tagged human APJ receptor; experiment: competitive radioligand binding, HEK293-hAPJ membranes; remark: listed apart in the source
[8] = male, Sprague-Dawley, rat, plasma, iv, 3 mg/kg

## CCCC[C@H](NC(=O)[C@@H]1CCCN1C(=O)CNC(=O)[C@H](CCCCN)NC(=O)[C@@H]1Cc2cncn2CC=CC[C@H](NC(=O)[C@H](CCCNC(=N)N)NC(=O)[C@@H]2CCC(=O)N2)C(=O)N[C@@H](CCCNC(=N)N)C(=O)N[C@@H](CC(C)C)C(=O)N[C@@H](CO)C(=O)N1)C(=O)N1CCC[C@H]1C(=O)N[C@@H](Cc1ccccc1)C(=O)O [Compound 15, Pyr-R-c[X-R-L-S-Alh]c-K-G-P-Nle-P-F]
[1]
  ΔMABP (drop in blood pressure): −40 mmHg
hAPJ receptor [2]; Table V, read-out: ß-arr2 Emax
  Emax: 115%
hAPJ receptor [2]; read-out: β-arr2 Emax
  Emax: 115%
hAPJ receptor [3]
  Emax: 99%

## CCCC[C@H](NC(=O)[C@@H]1CCCN1C(=O)CNC(=O)[C@H](CCCCN)NC(=O)[C@@H]1CC=CC[C@H](N)C(=O)N[C@@H](CCCNC(=N)N)C(=O)N[C@@H](CC(C)C)C(=O)N[C@@H](CO)C(=O)N1)C(=O)N1CCC[C@H]1C(=O)N[C@@H](Cc1ccccc1)C(=O)O [Compound 20, NH2-c[X-R-L-S-X]c-K-G-P-Nle-P-F]
[1]
  ΔMABP (drop in blood pressure): −27 mmHg
hAPJ receptor [2]; Table V, read-out: ß-arr2 Emax
  Emax: 98%
hAPJ receptor [2]; read-out: β-arr2 Emax
  Emax: 98%
hAPJ receptor [3]
  Emax: 100%

## CCCC[C@H](NC(=O)[C@@H]1CCCN1C(=O)CNC(=O)[C@H](CCCCN)NC(=O)[C@@H]1CC=CC[C@H](N)C(=O)N[C@@H](CCCNC(=N)N)C(=O)N[C@@H](CC(C)C)C(=O)N[C@@H](CO)C(=O)N1)C(=O)O [Compound 29, NH2-c[X-R-L-S-X]c-K-G-P-Nle]
[1]
  ΔMABP (drop in blood pressure): −13 mmHg
hAPJ receptor [2]; Table V, read-out: ß-arr2 Emax
  Emax: 69%
hAPJ receptor [2]; read-out: β-arr2 Emax
  Emax: 69%
[4]
  times less stable than 20: 3 times
  times less stable than full-length analog 13: 5 times
hAPJ receptor [3]
  Emax: 99%

## CC(C)C[C@@H]1NC(=O)[C@H](CCCNC(=N)N)NC(=O)[C@@H](N)CC=CC[C@@H](C(=O)N[C@@H](CCCCN)C(=O)NCC(=O)N2CCC[C@H]2C(=O)N[C@H](Cc2cccc3ccccc23)C(=O)O)NC(=O)[C@H](CO)NC1=O [Compound 42, NH2-c[X-R-L-S-X]c-K-G-P-(D-1Nal)]
[1]
  ΔMABP (drop in blood pressure): −24 mmHg
hAPJ receptor [2]
  agonist character on β-arrestin: partial agonists
hAPJ receptor [2]; Table V, read-out: ß-arr2 Emax
  Emax: 70%
hAPJ receptor [2]; read-out: β-arr2 Emax
  Emax: 70%
Sprague-Dawley rats
  effect on fractional shortening (FS) and cardiac output (CO): significant increase only in FS
In vivo; 3 mg/kg
  plasma presence at 4 h: completely cleared from plasma
In vivo; i.v. 3 mg/kg
  AUC: 1.33 ± 0.18 min*(mg/mL)
hAPJ receptor [3]
  agonist character on Gαi1: full agonists
  Emax: 103%

## CC(C)C[C@@H]1NC(=O)[C@H](CCCNC(=N)N)NC(=O)[C@@H](N)CC=CC[C@@H](C(=O)N[C@@H](CCCCN)C(=O)NCC(=O)N2CCC[C@H]2C(=O)N[C@H](Cc2ccc3ccccc3c2)C(=O)O)NC(=O)[C@H](CO)NC1=O [Compound 43, NH2-c[X-R-L-S-X]c-K-G-P-(D-2Nal)]
[1]
  effect on blood pressure: no effect
hAPJ receptor [2]
  agonist character on β-arrestin: partial agonists
hAPJ receptor [2]; Table V, read-out: ß-arr2 Emax
  Emax: 55%
hAPJ receptor [2]; read-out: β-arr2 Emax
  Emax: 55%
[4]; Table I, 37° C., up to 24 h, read-out: Half-life in vitro (converted)
  half-life at […]: > 24 h
[4]; Table V, read-out: Half-life t1/2
  half-life at […]: > 24 h
Sprague-Dawley rats
  effect on fractional shortening (FS) and cardiac output (CO): significant increase in both FS and CO
Sprague-Dawley rats; s.c. 2 μmol/kg, 6 h
  CO increase from baseline: 16%
  FS increase: 17%
In vivo; i.v. 3 mg/kg
  AUC: 8.80 ± 0.41 min*(mg/mL)
In vivo; [8]
  level at 5 min: 36100 ng/mL
  level at 4 h: 8600 ng/mL
hAPJ receptor [3]
  agonist character on Gαi1: full agonists
  Emax: 105%

## CSCC[C@H](NC(=O)[C@@H]1CCCN1C(=O)CNC(=O)[C@H](CCCCN)NC(=O)[C@H](Cc1cnc[nH]1)NC(=O)[C@H](CO)NC(=O)[C@H](CC(C)C)NC(=O)[C@H](CCCNC(=N)N)NC(=O)[C@@H]1CCCN1C(=O)[C@H](CCCNC(=N)N)NC(=O)[C@@H]1CCC(=O)N1)C(=O)N1CCC[C@H]1C(=O)N[C@@H](Cc1ccccc1)C(=O)O [Compound 60, Pyr-R-P-R-L-S-H-K-G-P-M-P-F, reference compound]
Sprague-Dawley rats
  effect on fractional shortening (FS) and cardiac output (CO): no observable effect
In vivo; i.v. 3 mg/kg
  completely disappeared after: 5 min
  AUC: 0.0002 ± 0.0001 min*(mg/mL)
In vivo; [8]
  clearance: > 100 mL/min/kg

B1: Compound 50 (KT01-181) (peptide)
peptide: RKPXY
modifications: NH2-R-c[K(N-butenyl)-P-X]-Tyr(Obn): K(N-butenyl) 2 and X (allylglycine) 4 close the macrocycle; Tyr(OBn) 5
[5]
  Ki: 7180 nM

## Ac-KFRRQRPRLEHKKP[Nle]P[Tyr(OBn)] (lactam 10-13) [Compound 66 (KT03-02)]
[6]
  EC50 Gαi1: 21.7 nM
[7]
  Ki: 1.6 nM

## [Rx]RLS[AIH]KGP[Nle]PF (staple 1-5; reading uncertain) [Compound 26 (KT01-120)]
[5]
  Ki: 382 nM

B2: Compound 27 (KT01-111) (peptide)
peptide: [pent‑4‑enoyl]RLS[AIH]KGP[Nle]PF
modifications: staple 1-5; not fully specified; printed as Ø-c[X-R-L-S-AIH]-K-G-P-Nle-P-F; reading uncertain
[5]
  Ki: 380 nM

## [pGlu]RKRLSDKGP[Nle]PF (lactam 3-7) [Compound 17 (KT01-106)]
[5]
  Ki: 39 nM

## Ac-ENTN[8‑aminooctanoic acid]RPRLKHKGP[Nle]PF (lactam 1-10) [Compound 46 (KT01-145)]
[5]
  Ki: 32 nM

B3: Compound 65 (KT02-99) (peptide)
peptide: Ac-KFRRQRPRLEHKKP[Nle]P[dcypTyr(OBn)]
modifications: lactam 10-13; reading uncertain; also: printed as Ac-K-F-R-R-Q-R-P-R-L-[E-H-K-K]-P-Nle-P-dcypTyrOBn
[6]
  EC50 Gαi1: 73 nM
[7]
  Ki: 4.16 nM
